Data published in patent publication US9605005B2, “Alkynyl alcohols and methods of use” (Genentech, Inc., priority 2013, dated 2017).

Legend:
[1] = tested on: p52 (NF-kB2) nuclear translocation, HeLa cells; assay: p52 (NF-kB2) nuclear translocation assay in HeLa cells (non-classical NF-kB signaling, anti-lymphotoxin beta receptor antibody stimulated); format: cell-based; conditions: Homo sapiens, 100 ng/mL anti-lymphotoxin beta receptor antibody for 5 hours, read-out: p52 HeLa Transloc Assay (IC50)
Outline: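 HeLa cells in 10% FBS medium were treated with compound (0.2% DMSO final) and stimulated with 100 ng/mL anti-lymphotoxin beta receptor antibody for 5 h. Fixed cells were immunostained for p52 and imaged with DRAQ5 nuclear stain. Translocation is the nuclear to cytoplasmic intensity ratio, and IC50 values are in micromolar.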

[2] = tested on: REL-A (p65) nuclear translocation, HeLa cells; assay: REL-A (p65) nuclear translocation assay in HeLa cells (classical NF-kB signaling, TNF-α stimulated); format: cell-based; conditions: Homo sapiens, 0.5 h; HeLa cells, 10 ng/mL TNF-α for 30 minutes; read-out: REL-A HeLa Transloc Assay (IC50)
Outline: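 HeLa cells were exposed to test compounds at various concentrations (0.2% DMSO final) in medium with 10% fetal bovine serum for 4.5 hours, then stimulated for 30 minutes with 10 ng/mL TNF-α. After fixation in 4% paraformaldehyde, 0.1% Triton X-100 permeabilization and staining with 400 ng/mL anti-REL-A (p65) antibody, Alexa488 secondary and DRAQ5, Opera imaging gave nuclear-to-cytoplasmic signal ratios to calculate IC50.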

[3] = molecular target: nuclear factor-kappa B (NF-kB)-inducing kinase (NIK) (Homo sapiens (Human), UniProt Q99558); assay: NIK enzyme inhibition assay (Transcreener ADP, NIK ADP-FP); format: biochemical; conditions: purified NIK 0.5 nM, 10 μM ATP, fluorescence polarization; read-out: NIK ADP-FP (Ki μM)
Sequence of nuclear factor-kappa B (NF-kB)-inducing kinase (NIK) (Q99558 whole entry): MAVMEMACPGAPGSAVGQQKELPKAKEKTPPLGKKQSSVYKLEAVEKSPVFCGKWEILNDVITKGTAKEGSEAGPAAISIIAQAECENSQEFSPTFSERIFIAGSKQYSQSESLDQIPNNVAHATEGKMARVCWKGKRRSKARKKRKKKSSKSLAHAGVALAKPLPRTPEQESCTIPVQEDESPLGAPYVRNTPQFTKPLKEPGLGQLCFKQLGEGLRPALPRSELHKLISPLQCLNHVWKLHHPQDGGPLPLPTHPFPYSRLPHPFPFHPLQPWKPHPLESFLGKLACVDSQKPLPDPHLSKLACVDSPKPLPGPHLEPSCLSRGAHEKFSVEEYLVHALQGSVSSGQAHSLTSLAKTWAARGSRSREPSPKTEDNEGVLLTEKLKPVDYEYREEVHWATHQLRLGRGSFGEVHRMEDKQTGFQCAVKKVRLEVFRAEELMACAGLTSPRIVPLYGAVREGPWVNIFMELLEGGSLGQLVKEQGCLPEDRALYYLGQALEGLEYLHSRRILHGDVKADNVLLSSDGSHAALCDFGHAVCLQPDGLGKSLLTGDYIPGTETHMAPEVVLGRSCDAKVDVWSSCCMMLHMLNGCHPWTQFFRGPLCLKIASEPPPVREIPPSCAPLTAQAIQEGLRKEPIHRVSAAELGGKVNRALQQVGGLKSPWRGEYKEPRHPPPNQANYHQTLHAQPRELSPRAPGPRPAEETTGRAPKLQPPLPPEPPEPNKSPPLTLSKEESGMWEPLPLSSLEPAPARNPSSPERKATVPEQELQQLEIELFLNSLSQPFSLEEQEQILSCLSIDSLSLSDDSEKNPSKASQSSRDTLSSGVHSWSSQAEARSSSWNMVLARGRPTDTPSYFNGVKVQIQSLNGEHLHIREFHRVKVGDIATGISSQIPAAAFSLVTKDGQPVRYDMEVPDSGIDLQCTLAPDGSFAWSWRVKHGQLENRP

Structure (SMILES)	IC50 [1] [nM]	IC50 [2] [nM]	Ki [3] [nM]
CN1CC[C@@](O)(C#Cc2ccc(F)c(-n3nc(C(N)=O)c4c3CCC4)c2)C1=O [Compound 145, 1-[2-fluoro-5-[2-[(3R)-3-hy-droxy-1-methyl-2-oxo-pyrroli-din-3-yl]ethynyl]phenyl]-5,6-dihydro-4H-cyclopenta [c]pyrazole-3-carboxamide]	266	20000	1.24
CN1CC[C@@](O)(C#Cc2cccc(-n3nc(C(N)=O)c4c3COC4)c2)C1=O [Compound 146, 1-[3-[2-[(3R)-3-hydroxy-1-methyl-2-oxo-pyrrolidin-3-yl]ethynyl]phenyl]-4,6-dihydro-furo[3,4-c]pyrazole-3-carbox-amide]	220	20000	1.77
CN1CC[C@@](O)(C#Cc2cccc(-c3nn(C(N)=O)c4ccccc34)c2)C1=O [Compound 147, 3-[3-[2-[(3R)-3-hydroxy-1-methyl-2-oxo-pyrrolidin-3-yl]ethynyl]phenyl]indazole-1-carboxamide]	14.1	20000	0.324
CN1CC[C@@](O)(C#Cc2cccc(-n3nc(C(N)=O)c4ccncc43)c2)C1=O [Compound 148, 1-[3-[2-[(3R)-3-hydroxy-1-methyl-2-oxo-pyrrolidin-3-yl]ethynyl]phenyl]pyrazolo [3,4-c]pyridine-3-carboxamide]	110	20000	0.38
Cc1cc2c(C(N)=O)nn(-c3cccc(C#C[C@]4(O)CCN(C)C4=O)c3)c2cn1 [Compound 149, 1-[3-[2-[(3R)-3-hydroxy-1-methyl-2-oxo-pyrrolidin-3-yl]ethynyl]phenyl]-5-methyl-pyrazolo[3,4-c]pyridine-3-carboxamide]	215	20000	1.08
COc1cc2c(C(N)=O)nn(-c3cccc(C#C[C@]4(O)CCN(C)C4=O)c3)c2cn1 [Compound 150, 1-[3-[2-[(3R)-3-hydroxy-1-methyl-2-oxo-pyrrolidin-3-yl]ethynyl]phenyl]-5-methoxy-pyrazolo[3,4-c]pyridine-3-carboxamide]	57.3	20000	0.29
CN1CC[C@@](O)(C#Cc2cccc(-n3nc(C(N)=O)c4c3CCCN4)c2)C1=O [Compound 151, 1-[3-[2-[(3R)-3-hydroxy-1-methyl-2-oxo-pyrrolidin-3-yl]ethynyl]phenyl]-4,5,6,7-tetra-hydropyrazolo[4,3-b]pyri-dine-3-carboxamide]	1030	2000	3.96
Cc1cc(C#C[C@]2(O)CCN(C)C2=O)cc(-n2nc(C(N)=O)c3cccnc32)c1 [Compound 152, 1-[3-[2-[(3R)-3-hydroxy-1-methyl-2-oxo-pyrrolidin-3-yl]ethynyl]-5-methyl-phenyl] pyrazolo[3,4-b]pyridine-3-carboxamide]	45.8	20000	0.87
CN1CC[C@@](O)(C#Cc2cccc(-n3nc(C(N)=O)c4ccc(Cl)nc43)c2)C1=O [Compound 153, 6-chloro-1-[3-[2-[(3R)-3-hy-droxy-1-methyl-2-oxo-pyrroli-din-3-yl]ethynyl]phenyl] pyrazolo[3,4-b]pyridine-3-carboxamide]	132	2000	0.52
COc1ccc2c(C(N)=O)nn(-c3cccc(C#C[C@]4(O)CCN(C)C4=O)c3)c2n1 [Compound 154, 1-[3-[2-[(3R)-3-hydroxy-1-methyl-2-oxo-pyrrolidin-3-yl]ethynyl]phenyl]-6-methoxy-pyrazolo[3,4-b]pyridine-3-carboxamide]	33.9	2000	0.05
CN1CC[C@@](O)(C#Cc2cccc(-n3nc(C(N)=O)c4ccc(N5CCOCC5)nc43)c2)C1=O [Compound 155, 1-[3-[2-[(3R)-3-hydroxy-1-methyl-2-oxo-pyrrolidin-3-yl]ethynyl]phenyl]-6-morpho-lino-pyrazolo[3,4-b]pyri-dine-3-carboxamide]	129	20000	0.26
CN1CC[C@@](O)(C#Cc2cccc(-n3nc(C(N)=O)c4ccc(-c5cnn(C)c5)nc43)c2)C1=O [Compound 156, 1-[3-[2-[(3R)-3-hydroxy-1-methyl-2-oxo-pyrrolidin-3-yl]ethynyl]phenyl]-6-(1-meth-ylpyrazol-4-yl)pyrazolo[3,4-b] pyridine-3-carboxamide]	95.7	2000	0.09
Cc1ncc2c(C(N)=O)nn(-c3cccc(C#C[C@]4(O)CCN(C)C4=O)c3)c2n1 [Compound 157, 1-[3-[2-[(3R)-3-hydroxy-1-methyl-2-oxo-pyrrolidin-3-yl]ethynyl]phenyl]-6-methyl-pyrazolo[3,4-d]pyrimidine-3-carboxamide]	157	2000	0.68
CN1CC[C@@](O)(C#Cc2cccc(-n3nc(C(N)=O)c4cnc(C5CC5)nc43)c2)C1=O [Compound 158, 6-cyclopropyl-1-[3-[2-[(3R)-3-hydroxy-1-methyl-2-oxo-pyrrolidin-3-yl]ethynyl]phenyl]pyrazolo[3,4-d]pyri-midine-3-carboxamide]	46.2	2000	0.23
CN1CC[C@@](O)(C#Cc2cccc(-n3nc(C(N)=O)c4cnc(C(F)(F)F)nc43)c2)C1=O [Compound 159, 1-[3-[2-[(3R)-3-hydroxy-1-methyl-2-oxo-pyrrolidin-3-yl]ethynyl]phenyl]-6-(trifluoro-methyl)pyrazolo[3,4-d] pyrimidine-3-carboxamide]	2000	2000	7.13
COc1ncc2c(C(N)=O)nn(-c3cccc(C#C[C@]4(O)CCN(C)C4=O)c3)c2n1 [Compound 160, 1-[3-[2-[(3R)-3-hydroxy-1-methyl-2-oxo-pyrrolidin-3-yl]ethynyl]phenyl]-6-methoxy-pyrazolo[3,4-d]pyrimidine-3-carboxamide]	66.8	20000	0.13
CN1CC[C@@](O)(C#Cc2cccc(-n3nc(C(N)=O)c4cc(OCCN5CCC5)ccc43)c2)C1=O [Compound 161, 5-[2-(azetidin-1-yl)ethoxy]-1-[3-[2-[(3R)-3-hydroxy-1-methyl-2-oxo-pyrrolidin-3-yl]ethynyl]phenyl]indazole-3-carboxamide]	770	2000	2.52
CN1CC[C@@](O)(C#Cc2cccc(-n3nc(C(N)=O)c4cc(OCCN5CCOCC5)ccc43)c2)C1=O [Compound 162, 1-[3-[2-[(3R)-3-hydroxy-1-methyl-2-oxo-pyrrolidin-3-yl]ethynyl]phenyl]-5-(2-morpho-linoethoxy)indazole-3-carboxamide]	237	2000	0.35
CN1CC[C@@](O)(C#Cc2cccc(-n3nc(C(N)=O)c4ncccc43)c2)C1=O [Compound 164, 1-[3-[2-[(3R)-3-hydroxy-1-methyl-2-oxo-pyrrolidin-3-yl]ethynyl]phenyl)pyrazolo [4,3-b]pyridine-3-carboxamide]	208	20000	1.54
CCOC(=O)N1CCc2c(c(C(N)=O)nn2-c2cc(C#C[C@]3(O)CCN(C)C3=O)ccn2)C1 [Compound 165, ethyl 3-carbamoyl-1-[4-[2-[(3R)-3-hydroxy-1-methyl-2-oxo-pyrrolidin-3-yl]ethynyl]-2-pyridyl]-6,7-dihydro-4H-pyra-zolo[4,3-c]pyridine-5-car-boxylate]	274	20000	0.23
CN1CC[C@@](O)(C#Cc2cc(-n3nc(C(N)=O)c4c3CCCC4)ccn2)C1=O [Compound 166, 1-[2-[2-[(3R)-3-hydroxy-1-methyl-2-oxo-pyrrolidin-3-yl]ethynyl]-4-pyridyl]-4,5,6,7-tetrahydroindazole-3-carbox-amide]	320	20000	1.19
CN1CC[C@@](O)(C#Cc2cc(-n3nc(C(N)=O)c4c3CCCC4)ccc2C#N)C1=O [Compound 167, 1-[4-cyano-3-[2-[(3R)-3-hy-droxy-1-methyl-2-oxo-pyrroli-din-3-yl]ethynyl]phenyl]-4,5,6,7-tetrahydroindazole-3-carboxamide]	397	20000	1.93
CN1CC[C@@](O)(C#Cc2cccc(-n3nc(C(N)=O)c4c3[C@H](O)CC4)c2)C1=O [Compound 169, (6R)-6-hydroxy-1-[3-[2-[(3R)-3-hydroxy-1-methyl-2-oxo-pyrrolidin-3-yl]ethynyl]phenyl]-5,6-dihydro-4H-cyclo-penta[c]pyrazole-3-carbox-amide]	1120	20000	2.96
COc1cc2c(C(N)=O)nn(-c3cccc(C#C[C@]4(O)CCN(C)C4=O)c3)c2nn1 [Compound 173, 1-[3-[2-[(3R)-3-hydroxy-1-methyl-2-oxo-pyrrolidin-3-yl]ethynyl]phenyl]-5-methoxy-pyrazolo[3,4-c]pyridazine-3-carboxamide]	176	2000	0.55
CN1CC[C@@](O)(C#Cc2cccc(-n3nc(C(N)=O)c4ccnnc43)c2)C1=O [Compound 174, 1-[3-[2-[(3R)-3-hydroxy-1-methyl-2-oxo-pyrrolidin-3-yl]ethynyl]phenyl]pyrazolo [3,4-c]pyridazine-3-carbox-amide]	2000	2000	0.13
